Data on four compounds can be found in patent US20260001875A1, “AMINOPYRIMIDINYL DERIVATIVES FOR THE TREATMENT OF PARKINSON'S DISEASE” (UNIVERSITY OF DUNDEE, priority 2022, published 2026).

Assay [1] deals with T1, LRRK2^G2019S (Mus musculus, UniProt Q5S006, G2019S).
T1 construct: endogenous in cells; host or cells: LRRK2[G2019S] mouse embryonic fibroblasts (MEFs)
The assay can be described thus: Western blot LRRK2 degradation in LRRK2^G2019S MEFs. The format is cell-based. To be noted: dose response, 4 h treatment; for Dmax: read-out: Dmax on G2019S MEFs. Here is the method: (§1) The second-generation PROTACs were tested in parallel with the first generation PROTACs SD75, SD82, and SD100. The compounds were tested at 33 nM or […] concentrations for 4 hours or 24 hours, running two biological replicates per condition and achieving quantifications representative of both replicates. Analysis by quantitative immunoblotting was performed with readouts of the total LRRK2 (antibody recognizes epitope in C-terminus of protein), Rab10 pThr73 (physiological substrate) and LRRK2 pSer935 (biomarker phosphorylation site).
(§2) Primary MEFs were generated as described in a previous study (Wiggin et al., Mol. Cell Biol. 2002 April; 22(8):2871-81.). Briefly, the uterine horn was collected from adult female mice at day E12.5 and transferred to a 10 cm tissue culture dish containing cold PBS. Two forceps were used to tear the yolk sacs to isolate each embryo. Forceps were cleaned thoroughly with 70% ethanol between each embryo isolation. The embryos were culled, and a tissue piece was collected in a PCR tube for genotyping. The red tissue of the embryo, which grows to become the heart and liver, was removed. The remainder of the embryo was minced with a scalpel blade and incubated with 7.5 ml trypsin-EDTA solution for 10 minutes in a 37° C. tissue culture CO2 incubator. The dish was removed from the incubator and checked under a light microscope for single cells. 7.5 ml complete media was added to the trypsinised cells, and the cell suspension was transferred to a 15 ml Falcon tube, centrifuged at 1200 rpm for 5 minutes at room temperature. The trypsin was aspirated, the cell pellet was resuspended in 5 ml fresh complete media, and the cell suspension was plated in a 60 mm tissue culture dish and incubated in a 37° C., 5% CO2 tissue culture incubator. The MEFs at this stage were considered as passage 0 and were passaged and expanded for experimental use once the genotype was confirmed by allelic sequencing and immunoblotting. MEFs were cultured in Dulbecco's modified Eagle medium (DMEM) containing 10% (v/v) fetal bovine serum (FBS), 2 mM L-glutamine, 100 U/ml penicillin, and 100 μg/ml streptomycin supplemented with 1× non-essential amino acids and 1 mM sodium pyruvate.
Culturing and passaging of adherent cell lines were carried out using aseptic technique in CL1 or CL2 (for PBMC isolation) biological safety cabinets. All cells were incubated in a 37° C. incubator with 5% CO2. Cell lines were regularly tested for mycoplasma contamination. For western blot assay, the cells were seeded in 6-well plates. […] The cells were immediately placed on ice and were scraped and collected into 1.5 ml Eppendorf tubes. Cell lysates were incubated on ice for 10 minutes prior to centrifugation at 15,000 g at 4° C. for 15 minutes. The cell pellet was discarded, and supernatant was collected for analysis by quantitative immunoblotting. For long term storage, the supernatant was flash frozen and stored at −80° C. Protein concentrations of cell lysates were determined using the Bradford assay.
Cell lysates containing a quarter of a volume of 4× NuPAGE LDS sample buffer (NP0007) supplemented with 5% β-mercaptoethanol, were heated at 95° C. for 5 minutes. 15 to 20 μg of samples were loaded onto pre-cast 4-12% Bis-Tris midi 20W or 26W gels (Thermofisher Scientific®, Cat #WG1402BOX or WG1403BOX) and resolved at 130 V for 2 hours with NuPAGE MOPS SDS running buffer (Thermofisher Scientific® Cat #NP0001-02). Proteins were electrophoretically transferred onto a 0.45 μm nitrocellulose membrane (GE Healthcare, Amersham Protran® Supported 0.45 mm NC) at 90 V for 90 min on ice in transfer buffer (48 mM Tris base and 39 mM glycine supplemented with 20% methanol). The transferred membrane was blocked with 5% (w/v) skim milk powder dissolved in tris-buffered saline with tween (TBS-T) (50 mM Tris base, 150 mM sodium chloride (NaCl), 0.1% (v/v) Tween-20) at room temperature for 1 hour.
(In western blotting, separated proteins are transferred to a membrane and probed.)

Assay [2] deals with Rab10 pThr73. The assay can be described thus: Rab10 Thr73 dephosphorylation (immunoblot) in LRRK2^G2019S MEFs. As to conditions: Mus musculus; for inhibition at 1 µM: read-out: pRab10 inhibited in LRRK2^G2019S MEFs; for EC50: dose response, 4 h treatment, read-out: G2019S MEFs-pRab10-dephosphorylation EC50. Format: cell-based, mouse.
Assay [3] has as its target T2, LRRK2^WT (Mus musculus, UniProt Q5S006).
T2 construct: endogenous in cells; host or cells: primary wild-type mouse embryonic fibroblasts (MEFs)
Nature of the assay: Western blot LRRK2 degradation in WT MEFs. The format is cell-based. As to conditions: dose response, 4 h treatment; for Dmax: read-out: Dmax on WT MEFs. The procedure: as §1, with “Western blot degradation assays for the LRRK2 protacs were performed with WT and PD-associated LRRK2 [G2019S] mouse embryonic fibroblasts (MEFs). The second-generation” for “The second-generation”
as §2
Culturing and passaging of adherent cell lines were carried out using aseptic technique in CL1 or CL2 (for PBMC isolation) biological safety cabinets. All cells were incubated in a 37° C. incubator with 5% CO2. Cell lines were regularly tested for mycoplasma contamination. For western blot assay, the cells were seeded in 6-well plates. After treating with testing compounds at indicated concentrations and time period, the media was removed and the cells were washed with PBS and lysed in 100 μl ice-cold complete lysis buffer containing 50 mM Tris-HCl pH 7.4, 1 mM EGTA, 10 mM 2-glycerophosphate, 50 mM sodium fluoride, 5 mM sodium pyrophosphate, 270 mM sucrose, supplemented with 1 μg/ml microcystin-LR, 1 mM sodium orthovanadate, complete EDTA-free protease inhibitor cocktail (Roche) and 1% (v/v) Triton X-100. The cells were immediately placed on ice and were scraped and collected into 1.5 ml Eppendorf tubes. Cell lysates were incubated on ice for 10 minutes prior to centrifugation at 15,000 g at 4° C. for 15 minutes. The cell pellet was discarded, and supernatant was collected for analysis by quantitative immunoblotting. For long term storage, the supernatant was flash frozen and stored at −80° C. Protein concentrations of cell lysates were determined using the Bradford assay.
Cell lysates containing a quarter of a volume of 4× NuPAGE LDS sample buffer (NP0007) supplemented with 5% β-mercaptoethanol, were heated at 95° C. for 5 minutes. […]

Assay [4] deals with Rab10 pThr73. Nature of the assay: Rab10 Thr73 dephosphorylation (immunoblot) in WT MEFs. To be noted: Mus musculus; for inhibition at 0.033 µM / inhibition at 1 µM: read-out: pRab10 inhibited in WT MEFs; for EC50: dose response, 4 h treatment, read-out: WT MEFs pRab10-dephosphrylation EC50. The format is cell-based, mouse. In outline: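 Wild-type mouse embryonic fibroblasts in 6-well plates were treated with LRRK2 PROTACs, with two biological replicates per condition. Cells were washed in PBS and lysed on ice in buffer containing phosphatase and protease inhibitors plus 1% Triton X-100, then clarified at 15,000 g. Rab10 Thr73 phosphorylation was measured by quantitative immunoblotting of 15 to 20 μg protein on 4-12% Bis-Tris gels.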

For assay [5], the system named is Rab10 pThr73. Nature of the assay: Rab10 Thr73 dephosphorylation (immunoblot) in LRRK2^G2019S MEFs. Format: cell-based. As to conditions: Mus musculus, read-out: pRab10 inhibited in LRRK2^G2019S MEFs.

The term DC50 denotes the concentration giving 50% degradation. In general, Dmax refers to the greatest extent of degradation seen. Broadly, the EC50 is the concentration that produces a half-maximal response.

T2 sequence (Q5S006 whole entry): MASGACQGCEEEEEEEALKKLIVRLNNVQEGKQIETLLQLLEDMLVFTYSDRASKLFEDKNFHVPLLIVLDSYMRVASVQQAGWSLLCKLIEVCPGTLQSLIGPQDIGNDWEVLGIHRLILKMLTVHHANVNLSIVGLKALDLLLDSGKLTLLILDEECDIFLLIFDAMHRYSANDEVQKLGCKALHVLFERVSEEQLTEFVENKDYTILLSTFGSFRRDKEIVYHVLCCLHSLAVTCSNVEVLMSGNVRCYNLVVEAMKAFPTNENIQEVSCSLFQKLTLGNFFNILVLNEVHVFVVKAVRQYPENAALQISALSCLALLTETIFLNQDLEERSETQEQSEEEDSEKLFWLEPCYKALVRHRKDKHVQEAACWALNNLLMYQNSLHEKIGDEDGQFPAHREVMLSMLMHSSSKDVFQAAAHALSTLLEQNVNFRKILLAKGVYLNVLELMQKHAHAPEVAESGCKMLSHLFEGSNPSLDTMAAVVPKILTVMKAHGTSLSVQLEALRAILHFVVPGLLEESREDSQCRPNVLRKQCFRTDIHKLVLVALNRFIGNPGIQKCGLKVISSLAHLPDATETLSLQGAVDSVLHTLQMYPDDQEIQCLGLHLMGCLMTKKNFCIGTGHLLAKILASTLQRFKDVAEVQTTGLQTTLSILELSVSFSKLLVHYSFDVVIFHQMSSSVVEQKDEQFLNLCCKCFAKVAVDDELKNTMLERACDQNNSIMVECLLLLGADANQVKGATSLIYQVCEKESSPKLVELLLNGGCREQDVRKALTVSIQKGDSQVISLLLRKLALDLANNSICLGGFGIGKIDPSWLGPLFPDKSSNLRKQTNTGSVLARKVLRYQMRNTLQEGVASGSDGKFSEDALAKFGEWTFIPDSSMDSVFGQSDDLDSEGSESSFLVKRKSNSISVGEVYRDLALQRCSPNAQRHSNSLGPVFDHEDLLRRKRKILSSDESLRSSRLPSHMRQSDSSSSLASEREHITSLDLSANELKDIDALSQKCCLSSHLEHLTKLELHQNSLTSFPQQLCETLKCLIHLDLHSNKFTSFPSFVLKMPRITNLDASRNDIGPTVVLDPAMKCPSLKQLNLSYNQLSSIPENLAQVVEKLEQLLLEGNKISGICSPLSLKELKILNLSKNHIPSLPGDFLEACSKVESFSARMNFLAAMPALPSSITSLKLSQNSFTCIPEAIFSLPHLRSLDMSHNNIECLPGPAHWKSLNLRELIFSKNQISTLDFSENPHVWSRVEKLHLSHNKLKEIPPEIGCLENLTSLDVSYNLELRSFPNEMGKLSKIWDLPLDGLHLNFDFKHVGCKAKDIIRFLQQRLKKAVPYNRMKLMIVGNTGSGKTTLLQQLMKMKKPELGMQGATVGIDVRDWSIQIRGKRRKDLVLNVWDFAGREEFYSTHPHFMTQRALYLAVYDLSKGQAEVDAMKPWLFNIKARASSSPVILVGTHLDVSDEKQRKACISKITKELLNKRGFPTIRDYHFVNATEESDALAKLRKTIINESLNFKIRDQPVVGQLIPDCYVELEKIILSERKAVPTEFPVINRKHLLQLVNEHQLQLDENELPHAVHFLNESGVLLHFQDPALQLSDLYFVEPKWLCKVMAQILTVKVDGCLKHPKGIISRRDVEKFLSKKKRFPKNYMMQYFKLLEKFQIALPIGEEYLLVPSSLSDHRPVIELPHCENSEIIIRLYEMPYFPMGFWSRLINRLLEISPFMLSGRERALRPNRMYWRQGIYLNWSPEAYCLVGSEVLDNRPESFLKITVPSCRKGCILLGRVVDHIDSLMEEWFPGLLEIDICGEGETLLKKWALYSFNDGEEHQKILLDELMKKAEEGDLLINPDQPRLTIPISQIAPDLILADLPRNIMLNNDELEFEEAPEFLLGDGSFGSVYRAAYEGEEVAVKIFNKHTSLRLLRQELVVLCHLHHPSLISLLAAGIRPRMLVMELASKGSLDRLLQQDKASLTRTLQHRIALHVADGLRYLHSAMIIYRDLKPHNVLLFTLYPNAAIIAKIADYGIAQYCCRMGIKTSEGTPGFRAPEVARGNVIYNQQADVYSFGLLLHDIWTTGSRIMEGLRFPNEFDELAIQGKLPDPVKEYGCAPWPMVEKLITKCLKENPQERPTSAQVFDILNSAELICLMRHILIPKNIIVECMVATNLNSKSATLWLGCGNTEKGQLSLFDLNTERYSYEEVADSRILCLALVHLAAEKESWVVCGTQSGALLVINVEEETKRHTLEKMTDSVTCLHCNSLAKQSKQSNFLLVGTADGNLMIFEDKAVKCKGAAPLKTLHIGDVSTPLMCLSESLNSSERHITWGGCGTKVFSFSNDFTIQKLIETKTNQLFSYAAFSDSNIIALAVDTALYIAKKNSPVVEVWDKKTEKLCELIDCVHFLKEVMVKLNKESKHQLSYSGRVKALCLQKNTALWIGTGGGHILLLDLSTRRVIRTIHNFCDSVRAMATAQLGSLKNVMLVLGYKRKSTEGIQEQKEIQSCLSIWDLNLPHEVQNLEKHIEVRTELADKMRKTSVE
T1 sequence (Q5S006 whole entry G2019S): as the sequence (Q5S006 whole entry) above, with G2019S counted along it

Take `CNc1nc(Nc2ccc(C(=O)N3CCN(C[C@H]4CC[C@H](CSC(C)(C)[C@H](NC(=O)C5(F)CC5)C(=O)N5C[C@H](O)CC5C(=O)NCc5ccc(-c6scnc6C)cc5C)CC4)CC3)cc2OC)ncc1Cl` (stereo partly drawn) [XL02048, (2S,4R)-1-((R)-3-((((1R,4R)-4-((4-(4-((5-chloro-4-(methylamino)pyrimidin-2-yl)amino)-3-methoxybenzoyl)piperazin-1-yl)methyl)cyclohexyl)methyl)thio)-2-(1-fluorocyclopropane-1-carboxamido)-3-methylbutanoyl)-4-hydroxy-N-(2-methyl-4-(4-methylthiazol-5-yl)benzyl)pyrrolidine-2-carboxamide]: the DC50 in assay [1] was found to be 23 nM; in assay [3], 46 nM. Moreover, the Dmax in assay [1] turned out to be 83.5%; in assay [3], 81.5%. Also, the inhibition at 1 µM was 10 to 100% in assay [2] (1 μM/4 h treatment), 80 to 100% in assay [2] (1 μM/24 h treatment), 80 to 100% in assay [4] (1 μM/4 h treatment) and 80 to 100% in assay [4] (1 μM/24 h treatment). Moreover, the results for the EC50 in assay [2] and in assay [4] were 53 nM and 72 nM, respectively. For the same compound, the inhibition at 0.033 µM was 0 to 70% in assay [4] (33 nM/4 h treatment), 0 to 80% in assay [4] (33 nM/24 h treatment), 0 to 90% in assay [5] (33 nM/4 h treatment) and 30 to 90% in assay [5] (33 nM/24 h treatment).
Regarding `CNc1nc(Nc2ccc(C(=O)N3CCN(C[C@H]4CC[C@@H](CSC(C)(C)[C@H](NC(=O)C5(F)CC5)C(=O)N5C[C@H](O)CC5C(=O)NCc5ccc(-c6scnc6C)cc5C)CC4)CC3)cc2OC)ncc1Cl` (stereo partly drawn) [XL02059, (2S,4R)-1-((R)-3-((((1s,4S)-4-((4-(4-((5-chloro-4-(methylamino)pyrimidin-2-yl)amino)-3-methoxybenzoyl)piperazin-1-yl)methyl)cyclohexyl)methyl)thio)-2-(1-fluorocyclopropane-1-carboxamido)-3-methylbutanoyl)-4-hydroxy-N-(2-methyl-4-(4-methylthiazol-5-yl)benzyl)pyrrolidine-2-carboxamide], the Dmax came out at 76% in assay [1] and 77.5% in assay [3]. Also, the inhibition at 1 µM in assay [2] (1 μM/4 h treatment) is 10 to 100%; in assay [2] (1 μM/24 h treatment), 80 to 100%; in assay [4] (1 μM/4 h treatment), 80 to 100%; in assay [4] (1 μM/24 h treatment), 80 to 100%. The EC50 is 55 nM in assay [2] and 227 nM in assay [4]. In addition, the inhibition at 0.033 µM was 0 to 70% in assay [4] (33 nM/4 h treatment), 0 to 80% in assay [4] (33 nM/24 h treatment), 0 to 90% in assay [5] (33 nM/4 h treatment) and 30 to 90% in assay [5] (33 nM/24 h treatment).
Regarding `CNc1nc(Nc2ccc(C(=O)N3CCN(C[C@H]4CC[C@H](CSC(C)(C)[C@H](NC(=O)C5(F)CC5)C(=O)N5C[C@H](O)CC5C(=O)N[C@@H](C)c5ccc(-c6scnc6C)cc5)CC4)CC3)cc2OC)ncc1Cl` (stereo partly drawn) [XL02049, (2S,4R)-1-((R)-3-((((1R,4R)-4-((4-(4-((5-chloro-4-(methylamino)pyrimidin-2-yl)amino)-3-methoxybenzoyl)piperazin-1-yl)methyl)cyclohexyl)methyl)thio)-2-(1-fluorocyclopropane-1-carboxamido)-3-methylbutanoyl)-4-hydroxy-N—((S)-1-(4-(4-methylthiazol-5-yl)phenyl)ethyl)pyrrolidine-2-carboxamide], the DC50 in assay [1] is 27 nM; in assay [3], 40 nM. Besides, the Dmax worked out at 90% in assay [1] and 76.5% in assay [3]. Besides, the inhibition at 1 µM was in the range of 10 to 100% in assay [2] (1 μM/4 h treatment), 80 to 100% in assay [2] (1 μM/24 h treatment), 80 to 100% in assay [4] (1 μM/4 h treatment) and 80 to 100% in assay [4] (1 μM/24 h treatment). The results for the EC50 in assay [2] and in assay [4] were 31 nM and 65 nM, respectively. The inhibition at 0.033 µM lay in the range of 0 to 70% in assay [4] (33 nM/4 h treatment), 0 to 80% in assay [4] (33 nM/24 h treatment), 0 to 90% in assay [5] (33 nM/4 h treatment) and 30 to 90% in assay [5] (33 nM/24 h treatment).
For the compound `CNc1nc(Nc2ccc(C(=O)N3CCN(C[C@H]4CO[C@H](CSC(C)(C)[C@@H](NC(=O)C5(F)CC5)C(=O)N5C[C@H](O)C[C@H]5C(=O)NCc5ccc(-c6scnc6C)cc5)CO4)CC3)cc2OC)ncc1Cl` [XL02098, (2S,4R)-1-((S)-3-((((2S,5S)-5-((4-(4-((5-chloro-4-(methylamino)pyrimidin-2-yl)amino)-3-methoxybenzoyl)piperazin-1-yl)methyl)-1,4-dioxan-2-yl)methyl)thio)-2-(1-fluorocyclopropane-1-carboxamido)-3-methylbutanoyl)-4-hydroxy-N-(4-(4-methylthiazol-5-yl)benzyl)pyrrolidine-2-carboxamide], the DC50 in assay [1] worked out at 45 nM; in assay [3], 50 nM. In addition, the Dmax was 81% in assay [1] and 59% in assay [3]. Also, the inhibition at 1 µM was 80 to 100% in assay [2] (1 μM/4 h treatment) and 75 to 90% in assay [4] (1 μM/4 h treatment). Moreover, the EC50 in assay [2] was 157 nM; in assay [4] it was 282 nM.
